Test results from publication PMC10980839 (Drug Design, Development and Therapy, 2024).
Entries after “also recorded” stand apart in the source; their conditions may differ.

Tests used:
[1] = system: rat liver microsomes (RLMs); conditions: tofacitinib 1-400 μM, 0.5 mg/mL RLMs, 1 mM NADPH, 37 °C, 30 min
[2] = cited from earlier work
[3] = system: rat liver microsomes (RLMs); test: Inhibitory effect of baohuoside I on tofacitinib metabolism in RLMs; assay type: in vitro ADME; conditions: Lineweaver-Burk plot

Q: With `C[C@@H]1CCN(C(=O)CC#N)C[C@@H]1N(C)c1ncnc2[nH]ccc12` [Tofacitinib] as the compound, how does the Km [1] read?
A: The Km was 39.9 µM.

Q: What about the Vmax [1] of the same compound?
A: Its Vmax is 4.2824 ng/min/mg.

Q: What about the plasma protein binding [2] of the same compound?
A: The plasma protein binding was “about 40%”.

Q: For `COc1ccc(-c2oc3c(CC=C(C)C)c(O)cc(O)c3c(=O)c2O[C@@H]2O[C@@H](C)[C@H](O)[C@@H](O)[C@H]2O)cc1` [Baohuoside I], which “inhibition mechanism on tofacitinib metabolism” value [3] is on record?
A: Its value is “a mixture of non-competitive and competitive inhibition; also recorded: a combination of non-competitive and competitive inhibition”.
